How the values were obtained:
[1] = molecular target: Prostaglandin G/H synthase 1 (Homo sapiens, UniProt P23219); experiment: Inhibition of human recombinant COX1 pre-incubated for 15 mins before fluorometric substrate addition by fluorescence based assay
[2] = Cmax in Sprague-Dawley rat at 2.5 mg/kg, po measured during 1 to 24 hrs by LC-MS method; assay type: ADME, organism-based; set-up: dose 2.5 mg/kg, route oral; details: in vivo
Rattus norvegicus [3] = experiment: Tmax in Sprague-Dawley rat at 2.5 mg/kg, po measured during 1 to 24 hrs by LC-MS method; assay type: ADME, organism-based; set-up: dose 2.5 mg/kg, route oral; details: in vivo
[4] = Apparent oral clearance in Sprague-Dawley rat at 1 mg/kg, iv measured during 1 to 24 hrs by LC-MS method; assay type: ADME, organism-based; set-up: dose 1 mg/kg, route oral; details: in vivo
[5] = Cmax in Sprague-Dawley rat at 1 mg/kg, iv measured during 1 to 24 hrs by LC-MS method; assay type: ADME, organism-based; set-up: dose 1 mg/kg, route intravenous; details: in vivo
[6] = (§1) Oral bioavailability in Sprague-Dawley rat at 2.5 mg/kg measured during 1 to 24 hrs by LC-MS method; assay type: ADME, organism-based; details: Sprague-Dawley, in vivo
Rattus norvegicus [7] = experiment: Half life in Sprague-Dawley rat at 2.5 mg/kg, po measured during 1 to 24 hrs by LC-MS method; assay type: ADME, organism-based; set-up: dose 2.5 mg/kg, route oral; details: in vivo
[8] = (§2) Apparent oral clearance in Sprague-Dawley rat at 2.5 mg/kg, po measured during 1 to 24 hrs by LC-MS method; assay type: ADME, organism-based; set-up: dose 2.5 mg/kg, route oral; details: Sprague-Dawley, in vivo
Rattus norvegicus [9] = experiment: Volume of distribution in Sprague-Dawley rat at 2.5 mg/kg, po measured during 1 to 24 hrs by LC-MS method; assay type: ADME, organism-based; set-up: dose 2.5 mg/kg, route oral; details: in vivo
Rattus norvegicus [10] = experiment: Half life in Sprague-Dawley rat at 1 mg/kg, iv measured during 1 to 24 hrs by LC-MS method; assay type: ADME, organism-based; set-up: dose 1 mg/kg, route intravenous; details: in vivo
[11] = (§3) AUC (0 to infinity) in Sprague-Dawley rat at 2.5 mg/kg, po measured during 1 to 24 hrs by LC-MS method; assay type: ADME, organism-based, Plasma; set-up: dose 2.5 mg/kg, route oral, time infinity; details: Sprague-Dawley, plasma
[12] = Volume of distribution in Sprague-Dawley rat at 1 mg/kg, iv measured during 1 to 24 hrs by LC-MS method; assay type: ADME, organism-based; set-up: dose 1 mg/kg, route intravenous; details: in vivo
[13] = (§4) AUC (0 to infinity) in Sprague-Dawley rat at 1 mg/kg, iv measured during 1 to 24 hrs by LC-MS method; assay type: ADME, organism-based, Plasma; set-up: time infinity, dose 1 mg/kg, route intravenous; details: Sprague-Dawley, plasma
[14] = molecular target: T1, Prostaglandin G/H synthase 2 (Homo sapiens, UniProt P35354); experiment: Inhibition of human recombinant COX2 pre-incubated for 15 mins before fluorometric substrate addition by fluorescence based assay
T1 sequence (P35354 whole entry): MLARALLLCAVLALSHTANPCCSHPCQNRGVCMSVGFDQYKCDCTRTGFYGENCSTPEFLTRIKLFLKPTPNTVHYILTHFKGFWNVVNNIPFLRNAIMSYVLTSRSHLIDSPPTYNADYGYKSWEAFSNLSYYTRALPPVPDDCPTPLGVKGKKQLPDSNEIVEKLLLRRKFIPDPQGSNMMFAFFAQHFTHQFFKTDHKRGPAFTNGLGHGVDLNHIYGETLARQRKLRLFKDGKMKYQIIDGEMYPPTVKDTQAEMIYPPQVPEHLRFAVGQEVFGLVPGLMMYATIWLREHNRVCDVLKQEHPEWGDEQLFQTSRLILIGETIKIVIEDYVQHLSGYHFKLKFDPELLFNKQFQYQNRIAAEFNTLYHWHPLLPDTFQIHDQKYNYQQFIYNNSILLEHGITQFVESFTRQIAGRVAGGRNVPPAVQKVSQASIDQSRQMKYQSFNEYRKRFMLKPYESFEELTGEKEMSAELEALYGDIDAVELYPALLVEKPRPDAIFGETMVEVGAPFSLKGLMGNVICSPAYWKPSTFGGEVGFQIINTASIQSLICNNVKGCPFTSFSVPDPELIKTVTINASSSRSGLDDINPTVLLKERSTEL

Rattus norvegicus [15] = experiment: as §1; assay type: ADME, organism-based; details: in vivo
Rattus norvegicus [16] = experiment: Antiinflammatory activity in orally dosed Sprague-Dawley rat model of carrageenan-induced foot paw edema assessed as reduction in edema by plethysmometry; assay type: functional, organism-based
Rattus norvegicus [17] = experiment: as §2; assay type: ADME, organism-based; set-up: dose 2.5 mg/kg, route oral; details: in vivo
Rattus norvegicus [18] = experiment: Antiinflammatory activity in orally dosed Sprague-Dawley rat model of carrageenan-induced air pouch inflammation assessed as reduction in PGE2 level by ELISA method; assay type: functional, organism-based
Rattus norvegicus [19] = experiment: as §3; assay type: ADME, organism-based, Plasma; set-up: dose 2.5 mg/kg, route oral, time infinity; details: in vivo
Rattus norvegicus [20] = experiment: as §4; assay type: ADME, organism-based, Plasma; set-up: time infinity, dose 1 mg/kg, route intravenous; details: in vivo
Rattus norvegicus [21] = experiment: Antinociceptive activity in orally dosed Sprague-Dawley rat model of carrageenan-induced foot paw hyperalgesia assessed as paw withdrawal latency; assay type: functional, organism-based

Chain of Prostaglandin G/H synthase 1 (P23219 whole entry): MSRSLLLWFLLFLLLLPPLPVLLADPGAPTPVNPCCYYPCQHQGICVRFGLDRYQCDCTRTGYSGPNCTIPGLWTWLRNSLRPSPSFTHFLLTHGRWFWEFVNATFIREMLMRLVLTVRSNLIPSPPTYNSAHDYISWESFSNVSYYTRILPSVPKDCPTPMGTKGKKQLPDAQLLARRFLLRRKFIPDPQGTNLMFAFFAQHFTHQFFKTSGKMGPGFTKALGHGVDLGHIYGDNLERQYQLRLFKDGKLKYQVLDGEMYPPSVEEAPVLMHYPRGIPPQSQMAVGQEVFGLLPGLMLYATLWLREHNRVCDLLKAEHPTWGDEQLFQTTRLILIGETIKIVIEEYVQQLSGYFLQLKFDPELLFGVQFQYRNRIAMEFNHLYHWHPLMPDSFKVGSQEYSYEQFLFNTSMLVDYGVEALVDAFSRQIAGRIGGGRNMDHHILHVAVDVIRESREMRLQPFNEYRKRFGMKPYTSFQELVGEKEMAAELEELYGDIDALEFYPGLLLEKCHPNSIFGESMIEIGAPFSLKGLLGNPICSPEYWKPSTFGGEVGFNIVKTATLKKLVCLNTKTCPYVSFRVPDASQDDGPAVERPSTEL

Question: For `Cc1cc(Cl)c2c(c1)C=C(C(=O)O)C(C(F)(F)F)O2` (configuration not stated), which IC50 [1] is on record?
Answer: > 100 µM

Question: For `Cc1cc2c(c(C)c1Br)C=C(C(=O)O)C(C(F)(F)F)O2` (configuration not stated), which Cmax [2] is on record?
Answer: 5.34 µg/mL

Question: What about the Tmax (Rattus norvegicus [3]) of the same molecule?
Answer: 0.375 h

Question: And the CL/F [4]?
Answer: 0.119 L/h/kg

Question: What about the Cmax [5] of the same molecule?
Answer: 16.7 µg/mL

Question: And the bioavailability [6]?
Answer: 56.7%

Question: And the t1/2 (Rattus norvegicus [7])?
Answer: 3.53 h

Question: What about the IC50 [1] of the same molecule?
Answer: > 100 µM

Question: What about the CL/F [8] of the same molecule?
Answer: 0.211 L/h/kg

Question: What about the Vd (Rattus norvegicus [9]) of the same molecule?
Answer: 1.13 L/kg

Question: And the t1/2 (Rattus norvegicus [10])?
Answer: 2.3 h

Question: And the AUC(0-inf) [11]?
Answer: 12.5 µg·h/mL

Question: And the Vd [12]?
Answer: 0.38 L/kg

Question: What about the AUC(0-inf) [13] of the same molecule?
Answer: 8.84 µg·h/mL

Question: What about the IC50 [14] of the same molecule?
Answer: 0.19 µM

Question: Which CL/F [4] does the source give for `[2H]C([2H])([2H])c1cc(Cl)cc2c1OC(C(F)(F)F)C(C(=O)O)=C2` (configuration not stated) here?
Answer: 0.072 L/h/kg

Question: What about the Cmax [5] of the same molecule?
Answer: 9.07 µg/mL

Question: What about the F (Rattus norvegicus [15]) of the same molecule?
Answer: 110.7%

Question: And the EC50 (Rattus norvegicus [16])?
Answer: 6.48 mg/kg

Question: What about the CL/F (Rattus norvegicus [17]) of the same molecule?
Answer: 0.066 L/h/kg

Question: And the EC50 (Rattus norvegicus [18])?
Answer: 0.45 mg/kg

Question: And the t1/2 (Rattus norvegicus [10])?
Answer: 3.909 h

Question: And the AUC (Rattus norvegicus [19])?
Answer: 38900 µg/L.hr

Question: And the Vd [12]?
Answer: 0.404 L/kg

Question: And the AUC (Rattus norvegicus [20])?
Answer: 14.043753 µg·h/mL

Question: And the EC50 (Rattus norvegicus [21])?
Answer: 3.33 mg/kg

Question: With `[2H]C([2H])([2H])c1cc2c(c(C([2H])([2H])[2H])c1)OC(C(F)(F)F)C(C(=O)O)=C2` (configuration not stated) as the molecule, how does the IC50 [1] read?
Answer: > 100 µM
